The target of one assay is STAT6 (Homo sapiens (Human), UniProt P42226). Briefly: STAT6 degrader assay (HiBiT, HeLa LgBiT clone 4.14). It is filed as cell-based. Conditions: HeLa LgBiT clone 4.14, 4-24 h; geometric mean; given for compounds with >80% Emax; read-out: STAT6 degradation DC50. On the procedure: This was a HiBit based assay. A HeLa cell line stably transfected with a small protein, LgBit (Large Bit) was obtained from Promega. These cells express endogenous STAT6. A small 11 amino acid gene sequence (HiBiT) was inserted in the STAT6 gene using CRISPR technology. Once STAT6 protein is expressed in the cells, the HiBiT sequence will bind the LgBit in the cells resulting in a functional NanoBiT protein, giving a luminescent tag to STAT6, see FIG. 2.
Sequence of STAT6 (P42226 whole entry): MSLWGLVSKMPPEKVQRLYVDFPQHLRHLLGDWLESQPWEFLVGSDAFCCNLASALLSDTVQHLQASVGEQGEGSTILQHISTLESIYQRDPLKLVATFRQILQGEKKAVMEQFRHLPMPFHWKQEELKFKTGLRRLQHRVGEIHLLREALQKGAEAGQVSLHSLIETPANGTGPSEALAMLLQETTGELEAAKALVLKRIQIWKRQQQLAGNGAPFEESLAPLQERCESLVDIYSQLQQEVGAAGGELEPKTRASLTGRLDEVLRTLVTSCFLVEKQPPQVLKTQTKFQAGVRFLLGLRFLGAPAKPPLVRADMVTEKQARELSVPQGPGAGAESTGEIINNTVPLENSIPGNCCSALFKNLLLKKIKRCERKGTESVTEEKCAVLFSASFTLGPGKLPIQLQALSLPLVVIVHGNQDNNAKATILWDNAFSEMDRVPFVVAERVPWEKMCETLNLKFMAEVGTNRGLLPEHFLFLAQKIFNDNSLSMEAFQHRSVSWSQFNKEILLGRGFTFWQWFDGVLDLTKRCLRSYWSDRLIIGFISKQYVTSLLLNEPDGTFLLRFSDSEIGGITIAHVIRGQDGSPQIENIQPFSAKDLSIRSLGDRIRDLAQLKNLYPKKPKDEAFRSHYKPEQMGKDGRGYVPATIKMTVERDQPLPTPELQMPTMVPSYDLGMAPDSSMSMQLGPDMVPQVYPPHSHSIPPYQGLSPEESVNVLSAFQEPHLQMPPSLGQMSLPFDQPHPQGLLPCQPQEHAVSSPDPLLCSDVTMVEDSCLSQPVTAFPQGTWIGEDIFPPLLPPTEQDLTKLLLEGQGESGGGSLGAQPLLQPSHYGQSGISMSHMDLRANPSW
Single cell clones were prepared and the clone 4.14 was selected for the assay based on that clone showing high luminescence, high STAT6 phosphorylation upon stimulation with IL-4, and inhibition of luminescence when cells were treated with STAT6 siRNA.
HeLa LgBiT clone 4.14 cells were suspended in DMEM with 10% FCS, 1% Pen/Strep, Na-pyrovate and Hygromycin B, at a concentration of 1.25*105 cells pr mL. 5000 cells were added pr well of a 384 well plate and 20 nL of compound was added by Echo® liquid handler. NN6394A (terfenadine, a toxic compound) was added to control wells at 50 μM concentration to establish the assay window. In these wells the cells are dead which equals 100% degradation of STAT6.
After 4-24 h of incubation at 37° C. under 5% CO2/95% air, 5 μL substrate (Nano-GLO®) was added to the wells and the plates were centrifuged and incubated for 0.5 h.
The luminescence in the wells as a measure of non-degraded STAT6 was measured in a plate reader (BMG Pherastar FSX). The measured DC50 (in nM) was determined.
The dose-response curves Examples 3p1, 3e50, 3e17, and 3e51 are shown below (where percent degradation is plotted vs. test compound concentration in M on a log-scale).
In general terms: The HiBiT peptide binds its large partner to form an active luciferase.
Usually DC50 stands for the midpoint of the concentration-degradation curve. As to `Cc1cc(C(=O)N2CCC(CN3CCN(Cc4ccc5c(c4)n(C4CC4)c(=O)n5[C@H]4CCC(=O)NC4=O)C[C@@H]3C)CC2)cc(F)c1C1=CCN([C@@H](C)c2cc3c(-c4ccc(N)nc4)ccnc3n2C)CC1` (single isomer, unassigned) [Example 3h16], the DC50 amounted to 1.6 nM. Same read-out and setting: the figure for `CN(C(=O)c1ccc(C2CCN(Cc3cc4c(-c5ccc(N)nc5)ccnc4n3C)CC2)cc1)c1ccc(C2CCN(Cc3ccc4c(c3)oc(=O)n4C3CCC(=O)NC3=O)CC2)cc1` (stereo not shown) [Example 3n3, 4-(1-((4-(6-aminopyridin-3-yl)-1-methyl-1H-pyrrolo[2,3-b]pyridin-2-yl)methyl)piperidin-4-yl)-N-(4-(1-((3-(2,6-dioxopiperidin-3-yl)-2-oxo-2,3-dihydrobenzo[d]oxazol-6-yl)methyl)piperidin-4-yl)phenyl)-N-methylbenzamide] is 0.1 nM; for `Cn1c(CN2CCC(c3ccc(C(=O)N4CCC(OCC#Cc5cccc6c5n(C)c(=O)n6C5CCC(=O)NC5=O)CC4)cc3)CC2)cc2c(-c3ccc4[nH]ncc4c3)ccnc21` (stereo not shown) [Example 3a1, 3-(4-(3-((1-(4-(1-((4-(1H-indazol-5-yl)-1-methyl-1H-pyrrolo[2,3-b]pyridin-2-yl)methyl)piperidin-4-yl)benzoyl)piperidin-4-yl)oxy)prop-1-yn-1-yl)-3-methyl-2-oxo-2,3-dihydro-1H-benzo[d]imidazol-1-yl)piperidine-2,6-dione] it is 4.9 nM; for `CC(C)[C@H]1CN(Cc2ccc3c(c2)n(C)c(=O)n3C2CCC(=O)NC2=O)CCN1CC1CCN(C(=O)c2ccc(C3CCN([C@@H](C)c4cc5c(-c6ccc(N)nc6)ccnc5n4C)CC3)cc2)CC1` (stereo partly drawn) [Example 3e21, 3-(5-(((S)-4-((1-(4-(1-((S)-1-(4-(6-aminopyridin-3-yl)-1-methyl-1H-pyrrolo[2,3-b]pyridin-2-yl)ethyl)piperidin-4-yl)benzoyl)piperidin-4-yl)methyl)-3-iso-propylpiperazin-1-yl)methyl)-3-methyl-2-oxo-2,3-dihydro-1H-benzo[d]imidazol-1-yl)piperidine-2,6-dione] it is 2.8 nM. Same read-out and setting: the figure for `Cn1c(CN2CCC(c3ccc(C(=O)N4CCC(CN5CCN(Cc6ccc7c(c6)n(C6CC6)c(=O)n7C6CCC(=O)NC6=O)CC5)CC4)cc3)CC2)cc2c(-c3ccc4[nH]ncc4c3)ccnc21` (stereo not shown) [Example 3e6, 3-(5-((4-((1-(4-(1-((4-(1H-indazol-5-yl)-1-methyl-1H-pyrrolo[2,3-b]pyridin-2-yl)methyl)piperidin-4-yl)benzoyl)piperidin-4-yl)methyl)piperazin-1-yl)methyl)-3-cyclopropyl-2-oxo-2,3-dihydro-1H-benzo[d]imidazol-1-yl)piperidine-2,6-dione] is 1.4 nM; for `CNc1ccc(-c2ccnc3c2cc([C@H](C)N2CCC(c4ccc(C(=O)N5CCC(CN6CCN(Cc7cc8c(cc7F)n([C@H]7CCC(=O)NC7=O)c(=O)n8C)C[C@@H]6C)CC5)cc4)CC2)n3C)cn1` [Example 3h23, (S)-3-(6-fluoro-3-methyl-5-(((S)-3-methyl-4-((1-(4-(1-((S)-1-(1-methyl-4-(6-(methylamino)pyridin-3-yl)-1H-pyrrolo[2,3-b]pyridin-2-yl)ethyl)piperidin-4-yl)benzoyl)piperidin-4-yl)methyl)piperazin-1-yl)methyl)-2-oxo-2,3-dihydro-1H-benzo[d]imidazol-1-yl)piperidine-2,6-dione] it is 1.5 nM; for `Cn1c(CN2CCC(c3ccc(C(=O)N4CCC(CN5CCN(c6ccc7c(c6)n(C)c(=O)n7C6CCC(=O)NC6=O)CC5)CC4)cc3)CC2)cc2c(-c3ccc4[nH]ncc4c3)ccnc21` (stereo not shown) [Example 3m2, 3-(5-(4-((1-(4-(1-((4-(1H-indazol-5-yl)-1-methyl-1H-pyrrolo[2,3-b]pyridin-2-yl)methyl)-piperidin-4-yl)benzoyl)piperidin-4-yl)methyl)piperazin-1-yl)-3-methyl-2-oxo-2,3-dihydro-1H-benzo[d]imidazol-1-yl)piperidine-2,6-dione] it is 1.8 nM.

The same assay, now with this note: HeLa LgBiT clone 4.14, 4-24 h; read-out: STAT6 degradation Emax (%).
For orientation: Emax means the maximal effect, on the per cent scale that the assay sets. As for `C[C@@H]1CN(Cc2ccc3c(c2)n(C)c(=O)n3C2CCC(=O)NC2=O)CCN1CC1CCN(C(=O)c2ccc(C3CCN(Cc4cc5c(-c6ccc(N)nc6)ccnc5n4C)CC3)cc2)CC1` (stereo partly drawn) [Example 3e8, 3-(5-(((R)-4-((1-(4-(1-((4-(6-aminopyridin-3-yl)-1-methyl-1H-pyrrolo[2,3-b]pyridin-2-yl)methyl)piperidin-4-yl)benzoyl)piperidin-4-yl)methyl)-3-methylpiperazin-1-yl)methyl)-3-methyl-2-oxo-2,3-dihydro-1H-benzo[d]imidazol-1-yl)piperidine-2,6-dione], the Emax was in the range of 50 to 60%. Consider `Cn1c(CN2CCC(c3ccc(C(=O)N4CCC(CN5CCN(c6ccc7c(c6)n(C)c(=O)n7C6CCC(=O)NC6=O)CC5)CC4)cc3)CC2)cc2c(-c3ccc(N)nc3)ccnc21` (stereo not shown) [Example 3m1, 3-(5-(4-((1-(4-(1-((4-(6-aminopyridin-3-yl)-1-methyl-1H-pyrrolo[2,3-b]pyridin-2-yl)methyl)-piperidin-4-yl)benzoyl)piperidin-4-yl)methyl)piperazin-1-yl)-3-methyl-2-oxo-2,3-dihydro-1H-benzo[d]imidazol-1-yl)piperidine-2,6-dione], for which the Emax lay in the range of 40 to 50%. Same read-out and setting: under `Cn1c(CN2CCC(c3ccc(C(=O)N4CCC(CN5CCN(Cc6cccc7c6n(C)c(=O)n7C6CCC(=O)NC6=O)CC5)CC4)cc3)CC2)cc2c(-c3ccc4[nH]ncc4c3)ccnc21` (stereo not shown) [Example 3i1, 3-(4-((4-((1-(4-(1-((4-(1H-indazol-5-yl)-1-methyl-1H-pyrrolo[2,3-b]pyridin-2-yl)methyl)-piperidin-4-yl)benzoyl)piperidin-4-yl)methyl)piperazin-1-yl)methyl)-3-methyl-2-oxo-2,3-dihydro-1H-benzo[d]imidazol-1-yl)piperidine-2,6-dione] stands 50 to 60%. On the same count and under the same terms, under `CNc1ccc(-c2ccnc3c2cc(CN2CCC(c4c(F)cc(C(=O)N5CCC(CN6CCN(c7cc8c(cc7F)n(C7CCC(=O)NC7=O)c(=O)n8C)CC6)CC5)cc4F)CC2)n3C)cn1` (stereo not shown) [Example 3h49, 3-(5-(4-((1-(3,5-difluoro-4-(1-((1-methyl-4-(6-(methylamino)pyridin-3-yl)-1H-pyrrolo[2,3-b]pyridin-2-yl)methyl)piperidin-4-yl)benzoyl)piperidin-4-yl)methyl)piperazin-1-yl)-6-fluoro-3-methyl-2-oxo-2,3-dihydro-1H-benzo[d]imidazol-1-yl)piperidine-2,6-dione] stands under 20%; under `Cn1c(CN2CCC(c3ccc(C(=O)N4CCC(Cn5cc(-c6cccc7c6n(C)c(=O)n7C6CCC(=O)NC6=O)nn5)CC4)cc3)CC2)cc2c(-c3ccc4[nH]ncc4c3)ccnc21` (stereo not shown) [Example 3t2, 3-(4-(1-((1-(4-(1-((4-(1H-indazol-5-yl)-1-methyl-1H-pyrrolo[2,3-b]pyridin-2-yl)methyl)piperidin-4-yl)benzoyl)piperidin-4-yl)methyl)-1H-1,2,3-triazol-4-yl)-3-methyl-2-oxo-2,3-dihydro-1H-benzo[d]imidazol-1-yl)piperidine-2,6-dione], under 20%. On the same count and under the same terms, under `Cn1c(CN2CCC(c3ccc(C(=O)N4CCC(Cn5cc(-c6cccc7c6n(C)c(=O)n7C6CCC(=O)NC6=O)cn5)CC4)cc3)CC2)cc2c(-c3ccc4[nH]ncc4c3)ccnc21` (stereo not shown) [Example 3l1, 3-(4-(1-((1-(4-(1-((4-(1H-indazol-5-yl)-1-methyl-1H-pyrrolo[2,3-b]pyridin-2-yl)methyl)piperidin-4-yl)benzoyl)piperidin-4-yl)methyl)-1H-pyrazol-4-yl)-3-methyl-2-oxo-2,3-dihydro-1H-benzo[d]imidazol-1-yl)piperidine-2,6-dione] stands 20 to 30%.

(Values after patent US20250325677A1, “STAT6 DEGRADERS” (Gilead Sciences, Inc., priority 2024, published 2025).)
